Source: ChEMBL document CHEMBL2413072, “Synthesis and in vitro anticancer studies of novel C-2 arylidene congeners of lantadenes” (2013)

Tests used:
Format in all cases: functional
[1] = test system: KM12; test: Growth inhibition of human KM12 cells by sulforhodamine B assay
[2] = test system: HCT-116; test: Growth inhibition of human HCT116 cells by sulforhodamine B assay
[3] = test system: NCI-H226; test: Growth inhibition of human NCI-H226 cells by sulforhodamine B assay
[4] = test system: K562; test: Growth inhibition of human K562 cells by sulforhodamine B assay
[5] = test system: UACC-257; test: Growth inhibition of human UACC257 cells assessed as cell growth at 10^-8 M by sulforhodamine B assay; conditions: read-out: Activity
[6] = test system: SK-MEL-28; test: Growth inhibition of human SK-MEL-28 cells assessed as cell growth at 10^-8 M by sulforhodamine B assay; conditions: read-out: Activity
[7] = test system: Malme-3M; test: Growth inhibition of human MALME-3M cells assessed as cell growth at 10^-8 M by sulforhodamine B assay; conditions: read-out: Activity
[8] = test system: COLO 205; test: Growth inhibition of human COLO205 cells assessed as cell growth at 10^-8 M by sulforhodamine B assay; conditions: read-out: Activity
[9] = test system: NCI-H322M; test: Growth inhibition of human NCI-H322M cells assessed as cell growth at 10^-8 M by sulforhodamine B assay; conditions: read-out: Activity
[10] = test system: ACHN; test: Growth inhibition of human ACHN cells by sulforhodamine B assay
[11] = test system: UACC-62; test: Growth inhibition of human UACC62 cells by sulforhodamine B assay
[12] = test system: SK-MEL-2; test: Growth inhibition of human SK-MEL-2 cells by sulforhodamine B assay
[13] = test system: MDA-MB-231; test: Growth inhibition of human MDA-MB-231 cells assessed as cell growth at 10^-4 M by sulforhodamine B assay; conditions: read-out: Activity
[14] = test system: SN12C; test: Growth inhibition of human SN12C cells assessed as cell growth at 10^-4 M by sulforhodamine B assay; conditions: read-out: Activity
[15] = test system: A498; test: Growth inhibition of human A498 cells assessed as cell growth at 10^-4 M by sulforhodamine B assay; conditions: read-out: Activity
[16] = test system: OVCAR-3; test: Growth inhibition of human OVCAR3 cells assessed as cell growth at 10^-4 M by sulforhodamine B assay; conditions: read-out: Activity
[17] = test system: UACC-257; test: Growth inhibition of human UACC257 cells assessed as cell growth at 10^-4 M by sulforhodamine B assay; conditions: read-out: Activity
[18] = test system: SK-MEL-28; test: Growth inhibition of human SK-MEL-28 cells assessed as cell growth at 10^-4 M by sulforhodamine B assay; conditions: read-out: Activity
[19] = test system: M14; test: Growth inhibition of human M14 cells assessed as cell growth at 10^-4 M by sulforhodamine B assay; conditions: read-out: Activity
[20] = test system: SR; test: Growth inhibition of human SR cells assessed as cell growth at 10^-4 M by sulforhodamine B assay; conditions: read-out: Activity
[21] = test system: K562; test: Growth inhibition of human K562 cells assessed as cell growth at 10^-4 M by sulforhodamine B assay; conditions: read-out: Activity
[22] = test system: MDA-MB-468; test: Growth inhibition of human MDA-MB-468 cells assessed as cell growth at 10^-6 M by sulforhodamine B assay; conditions: read-out: Activity
[23] = test system: MDA-MB-231; test: Growth inhibition of human MDA-MB-231 cells assessed as cell growth at 10^-6 M by sulforhodamine B assay; conditions: read-out: Activity
[24] = test system: RXF 393; test: Growth inhibition of human RXF393 cells assessed as cell growth at 10^-6 M by sulforhodamine B assay; conditions: read-out: Activity
[25] = test system: ACHN; test: Growth inhibition of human ACHN cells assessed as cell growth at 10^-6 M by sulforhodamine B assay; conditions: read-out: Activity
[26] = test system: SK-OV-3; test: Growth inhibition of human SKOV3 cells assessed as cell growth at 10^-6 M by sulforhodamine B assay; conditions: read-out: Activity
[27] = Growth inhibition of human NCI-ADR-RES cells assessed as cell growth at 10^-6 M by sulforhodamine B assay; conditions: read-out: Activity
[28] = test system: UACC-257; test: Growth inhibition of human UACC257 cells assessed as cell growth at 10^-6 M by sulforhodamine B assay; conditions: read-out: Activity
[29] = test system: HT-29; test: Growth inhibition of human HT-29 cells assessed as cell growth at 10^-6 M by sulforhodamine B assay; conditions: read-out: Activity
[30] = test system: NCI-H23; test: Growth inhibition of human NCI-H23 cells assessed as cell growth at 10^-6 M by sulforhodamine B assay; conditions: read-out: Activity
[31] = test system: SR; test: Growth inhibition of human SR cells assessed as cell growth at 10^-6 M by sulforhodamine B assay; conditions: read-out: Activity
[32] = test system: CCRF-CEM; test: Growth inhibition of human CCRF-CEM cells assessed as cell growth at 10^-6 M by sulforhodamine B assay; conditions: read-out: Activity
[33] = Growth inhibition of human Hs 578T cells assessed as cell growth at 10^-7 M by sulforhodamine B assay; conditions: read-out: Activity
[34] = test system: UACC-62; test: Growth inhibition of human UACC62 cells assessed as cell growth at 10^-7 M by sulforhodamine B assay; conditions: read-out: Activity
[35] = test system: U-251; test: Growth inhibition of human U251 cells assessed as cell growth at 10^-7 M by sulforhodamine B assay; conditions: read-out: Activity
[36] = test system: NCI-H522; test: Growth inhibition of human NCI-H522 cells assessed as cell growth at 10^-7 M by sulforhodamine B assay; conditions: read-out: Activity
[37] = test system: HOP-92; test: Growth inhibition of human HOP92 cells assessed as cell growth at 10^-7 M by sulforhodamine B assay; conditions: read-out: Activity
[38] = test system: HL-60(TB); test: Growth inhibition of human HL-60(TB) cells assessed as cell growth at 10^-7 M by sulforhodamine B assay; conditions: read-out: Activity
[39] = test system: MDA-MB-468; test: Growth inhibition of human MDA-MB-468 cells assessed as cell growth at 10^-8 M by sulforhodamine B assay; conditions: read-out: Activity
[40] = test system: BT-549; test: Growth inhibition of human BT549 cells assessed as cell growth at 10^-8 M by sulforhodamine B assay; conditions: read-out: Activity
[41] = test system: SN12C; test: Growth inhibition of human SN12C cells assessed as cell growth at 10^-8 M by sulforhodamine B assay; conditions: read-out: Activity
[42] = read-out: LC50 (the source's name)
[43] = read-out: pLC50 (the source's name) (converted)

In the case of `C/C=C(/C)C(=O)O[C@@H]1CC(C)(C)C[C@H]2C3=CC[C@@H]4[C@@]5(C)CC[C@H](O)C(C)(C)[C@@H]5CC[C@@]4(C)[C@]3(C)CC[C@@]12C(=O)O` [Reduced Lantadene A], the GI50 ([1]; read-out: GI50) is reported as 1.35 µM, the TGI ([1]; read-out: TGI) is reported as 2.93 µM and the GI50 ([1]; read-out: pGI50 (converted)) is reported as 1.35 µM. It also gave a TGI ([1]; read-out: pTGI (converted)) of 2.95 µM, a GI50 ([2]; read-out: GI50) of 2.45 µM and an LC50 ([2]; read-out: LC50) of 65 µM. For the same molecule, the TGI ([2]; read-out: TGI) was 10.1 µM, the GI50 ([2]; read-out: pGI50 (converted)) was 2.45 µM and the LC50 ([2]; read-out: pLC50 (converted)) was 64.6 µM. For the same molecule, the TGI ([2]; read-out: pTGI (converted)) was 10.2 µM, the GI50 ([3]; read-out: GI50) was 1.71 µM and the LC50 ([3]; read-out: LC50) was 8.43 µM. The TGI ([3]; read-out: TGI) was 3.79 µM, the GI50 ([3]; read-out: pGI50 (converted)) was 1.7 µM and the LC50 ([3]; read-out: pLC50 (converted)) was 8.51 µM. For the same molecule, the TGI ([3]; read-out: pTGI (converted)) was 3.8 µM, the GI50 ([4]; read-out: GI50) was 2.64 µM and the LC50 ([4]; read-out: LC50) was > 100 µM. For the same molecule, the TGI ([4]; read-out: TGI) was 30.4 µM, the GI50 ([4]; read-out: pGI50 (converted)) was 2.63 µM and the LC50 ([4]; read-out: pLC50 (converted)) was > 100 µM. It also gave a TGI ([4]; read-out: pTGI (converted)) of 30.2 µM, a growth at 0.01 µM [5] of 93% and a growth at 0.01 µM [6] of 90%. The growth at 0.01 µM [7] was 94%, the growth at 0.01 µM [8] was 107% and the growth at 0.01 µM [9] was 102%. It also gave a GI50 ([10]; read-out: GI50) of 1.82 µM, a CC50 [10, 42] of 9.07 µM and a TGI ([10]; read-out: TGI) of 4.06 µM. It also gave a GI50 ([10]; read-out: pGI50 (converted)) of 1.82 µM, a CC50 [10, 43] of 9.12 µM and a TGI ([10]; read-out: pTGI (converted)) of 4.07 µM. It also gave a GI50 ([11]; read-out: GI50) of 1.56 µM, a CC50 [11, 42] of 7.83 µM and a TGI ([11]; read-out: TGI) of 3.5 µM. For the same molecule, the GI50 ([11]; read-out: pGI50 (converted)) was 1.55 µM, the CC50 [11, 43] was 7.76 µM and the TGI ([11]; read-out: pTGI (converted)) was 3.47 µM. For the same molecule, the GI50 ([12]; read-out: GI50) was 2.2 µM, the CC50 [12, 42] was 8.29 µM and the TGI ([12]; read-out: TGI) was 4.27 µM. The GI50 ([12]; read-out: pGI50 (converted)) was 2.19 µM, the CC50 [12, 43] was 8.32 µM and the TGI ([12]; read-out: pTGI (converted)) was 4.27 µM. For the same molecule, the growth at 100 µM [13] was -63%, the growth at 100 µM [14] was -51% and the growth at 100 µM [15] was -74%. The growth at 100 µM [16] was -48%, the growth at 100 µM [17] was -69% and the growth at 100 µM [18] was -41%. For the same molecule, the growth at 100 µM [19] was -48%, the growth at 100 µM [20] was -13% and the growth at 100 µM [21] was -2%. The growth at 1 µM [22] was 84%, the growth at 1 µM [23] was 89% and the growth at 1 µM [24] was 87%. For the same molecule, the growth at 1 µM [25] was 87%, the growth at 1 µM [26] was 98% and the growth at 1 µM [27] was 96%. For the same molecule, the growth at 1 µM [28] was 95%, the growth at 1 µM [29] was 105% and the growth at 1 µM [30] was 98%. It also gave a growth at 1 µM [31] of 89%, a growth at 1 µM [32] of 90% and a growth at 0.1 µM [33] of 91%. It also gave a growth at 0.1 µM [34] of 88%, a growth at 0.1 µM [35] of 90% and a growth at 0.1 µM [36] of 100%. The growth at 0.1 µM [37] was 76%, the growth at 0.1 µM [38] was 110% and the growth at 0.01 µM [39] was 93%. For the same molecule, the growth at 0.01 µM [40] was 99% and the growth at 0.01 µM [41] was 96%.
